Consider 12 compounds from ChEMBL document CHEMBL1201862, “PubChem BioAssay data set” (2004).

Common to all, as to test: growth of human tumour cells (NCI), 48 h
Assay [1] concerns MOLT-4.
For assay [2], the system named is M19-MEL.
The subject of assay [3] is KM12.
In assay [4] the test system is HT-29.
Assay [5] deals with TK-10.
For assay [6], the system named is SF-268.
The test system of assay [7] is SK-MEL-2.
For assay [8], the system named is COLO 205.
The subject of assay [9] is K562.
Assay [10] deals with U-251.
Assay [11] deals with CAKI-1.
Assay [12] concerns M14.
The test system of assay [13] is RPMI-8226.
Assay [14] concerns SK-OV-3.
Assay [15] concerns IGROV-1.
In assay [16] the test system is SW-620.
Assay [17] deals with SK-MEL-5.
Assay [18] relates to RXF 393.

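Five concentrations, 48 hours, 96-well plates. GI50 marks 50% less growth.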 Calls of active or inactive are those of the source. No stated cut-off is given here; in the data, active = GI50 up to about 1.1 µM and inactive = higher. Where only a bound is given, the exact number is not on record here.

For the compound `CC(C)(C)C1C=C(Sc2ccccc2)C(=O)O1` (stereo not drawn), the GI50 in assay [1] was 30.3 µM (inactive); in assay [2], 48.9 µM (inactive); in assay [3], 40.6 µM (inactive); in assay [4], 49.8 µM (inactive); in assay [5], 60.5 µM (inactive); in assay [6], 37.2 µM (inactive). Also, the GI50 in [7] was > 100 µM (inactive); in [8], 26.9 µM (inactive); in [9], 49.3 µM (inactive); in [10] it was 54 µM (inactive); in assay [11], 45.6 µM (inactive); in [12], 62.1 µM (inactive). Further, the GI50 in assay [13] is 36 µM (inactive); in assay [14], 58.9 µM (inactive); in assay [15], 48.9 µM (inactive); in [16], 80.5 µM (inactive).

As for `COc1ccc(N2C(=O)/C(=C(\C)c3cc4ccccc4oc3=O)N=C2c2cc([N+](=O)[O-])ccc2Cl)cc1`, the GI50 is 29.7 µM (inactive) in assay [1]; 42.1 µM (inactive) in assay [2]; 30.6 µM (inactive) in assay [17]; 22.3 µM (inactive) in assay [3]; 35.7 µM (inactive) in [4]; 28.7 µM (inactive) in assay [6]. Moreover, the GI50 in [7] is 61 µM (inactive); in [8], 43.9 µM (inactive); in assay [9], 10.8 µM (inactive); in [10], 48.1 µM (inactive); in assay [11], 29.6 µM (inactive); in assay [12] it was 23.6 µM (inactive). The GI50 is 26.5 µM (inactive) in [13], 57.7 µM (inactive) in [14], 43.3 µM (inactive) in assay [15] and 33.9 µM (inactive) in [16].

Regarding `Cc1c(C)c2ccc(OC(C)C(=O)O)cc2oc1=O` (stereo not drawn), the GI50 in assay [1], in assay [2], in assay [17], in assay [3], in [4] and in assay [5] was > 100 µM (inactive) throughout. Besides, the GI50 in assay [6], in assay [8], in [9], in assay [10], in assay [11] and in assay [12] was > 100 µM (inactive) in each case. Besides, the GI50 in assay [13], in assay [14], in assay [15], in [18] and in assay [16] was > 100 µM (inactive) in each case.

`COc1cccc2c1C(=O)c1c(O)c3c(c(O)c1C2=O)C[C@@](O)(C(=O)CN1CCOCC1)C[C@@H]3OC1CC(N)C(O)C(C)O1` (stereo partly drawn): the GI50 was 3.39 µM (inactive) in [2]; 3.11 µM (inactive) in [17]; 4.23 µM (inactive) in [3]; 0.000764 µM (active) in [4]; 4.47 µM (inactive) in assay [6]; 9.48 µM (inactive) in [7]. Besides, the GI50 in [8] is 5.94 µM (inactive); in assay [9] it was 2.9 µM (inactive); in assay [10] it was 2.12 µM (inactive); in assay [13] it was 1.61 µM (inactive); in [14] it was 7.62 µM (inactive); in assay [15] it was 5.7 µM (inactive). Further, the results for the GI50 in [18] and in assay [16] were 6.41 µM (inactive) and 2.34 µM (inactive), respectively.

On to `O=C1C2=C(C3=NCCc4c[nH]c1c43)c1c(cc(Br)c(O)c1Br)CCN2`, for which the GI50 was 2.81 µM (inactive) in assay [1]; 2.79 µM (inactive) in [2]; 9.1 µM (inactive) in [17]; 13.4 µM (inactive) in [3]; 6.59 µM (inactive) in [4]; 9.25 µM (inactive) in assay [6]. Besides, the GI50 is 13.6 µM (inactive) in assay [7]; 3.31 µM (inactive) in assay [8]; 15 µM (inactive) in [9]; 11.9 µM (inactive) in [10]; 20.3 µM (inactive) in assay [11]; 5.01 µM (inactive) in assay [13]. In addition, the GI50 in assay [14] is 7.41 µM (inactive); in [15], 13.6 µM (inactive); in assay [18], 14.8 µM (inactive); in assay [16], 15.2 µM (inactive).

In the case of `Clc1ccc(-c2c(C3=NCCCN3)nnn2-c2ccccc2)cc1`, the GI50 in assay [1] was > 100 µM (inactive); in [2], 69.5 µM (inactive); in [17] it was > 100 µM (inactive); in assay [3] it was > 100 µM (inactive); in assay [4] it was 40.1 µM (inactive); in assay [5], > 100 µM (inactive). For the same compound, the GI50 in assay [6] was > 100 µM (inactive); in assay [7], > 100 µM (inactive); in [8] it was 34.9 µM (inactive); in assay [9], 41.7 µM (inactive); in assay [10] it was > 100 µM (inactive); in assay [11] it was > 100 µM (inactive). For the same compound, the GI50 is > 100 µM (inactive) in [12]; > 100 µM (inactive) in [14]; > 100 µM (inactive) in assay [15]; > 100 µM (inactive) in assay [18]; 20.2 µM (inactive) in assay [16].

For `C[C@]12CCC(=O)C(O)=C1CCC2=O`, the GI50 in assay [1], in [2], in [17], in [3], in [4] and in [5] was > 100 µM (inactive) throughout. The GI50 in assay [6], in [8], in assay [10], in assay [11], in assay [12] and in [13] was > 100 µM (inactive) each time. Besides, the GI50 in assay [14], in assay [15], in [18] and in [16] was > 100 µM (inactive) throughout.

As for `CC(=O)OCCOCNC(=S)N/N=C/c1ccc([N+](=O)[O-])s1`, the GI50 in [1] is 28.8 µM (inactive); in [2], 18.2 µM (inactive); in [17], 25.7 µM (inactive); in [3] it was 34.4 µM (inactive); in [4], 20.7 µM (inactive); in assay [5], > 100 µM (inactive). Besides, the GI50 was 61.9 µM (inactive) in assay [6]; 67.3 µM (inactive) in [7]; 2.08 µM (inactive) in assay [8]; 21.7 µM (inactive) in assay [9]; 32.1 µM (inactive) in [10]; 40 µM (inactive) in assay [12]. The GI50 was 29.1 µM (inactive) in assay [13]; > 100 µM (inactive) in assay [14]; 34 µM (inactive) in [15]; > 100 µM (inactive) in assay [18]; 30.5 µM (inactive) in assay [16].

On to `CCOC(=O)C1(Br)S(=O)(=O)OCCOS1(=O)=O`, for which the GI50 in assay [1], in [2], in [17], in assay [4], in assay [5] and in assay [6] was > 100 µM (inactive) each time. Moreover, the GI50 in [7], in assay [8], in assay [9], in assay [10], in [12] and in [13] was > 100 µM (inactive) throughout. In addition, the GI50 in [14], in [15], in assay [18] and in [16] was > 100 µM (inactive) throughout.

On to `O=C(O)C12CC3CC(CC(F)(C3)C1)C2`, for which the GI50 in assay [1], in assay [2], in [17], in [3], in assay [4] and in assay [5] was > 100 µM (inactive) each time. Moreover, the GI50 in assay [7], in assay [8], in [9], in [10], in [12] and in assay [13] was > 100 µM (inactive) each time. The GI50 in [14], in [15], in assay [18] and in [16] was > 100 µM (inactive) each time.

On to `CCOC(=N)CC(=O)Nc1cccc(C)c1C`, for which the GI50 was 2.77 µM (inactive) in assay [1]; > 100 µM (inactive) in [2]; > 100 µM (inactive) in assay [17]; > 100 µM (inactive) in assay [3]; > 100 µM (inactive) in assay [4]; > 100 µM (inactive) in assay [5]. Also, the GI50 in [6] was > 100 µM (inactive); in [7] it was > 100 µM (inactive); in assay [8], > 100 µM (inactive); in assay [9] it was > 10 µM (inactive); in assay [10] it was > 100 µM (inactive); in assay [11], > 100 µM (inactive). Also, the GI50 in assay [12], in [14], in assay [15], in assay [18] and in assay [16] was > 100 µM (inactive) throughout.

As for `C=C1C(=O)[C@@]23CC[C@H]4[C@@](C)(CCC[C@@]4(C)C(=O)OC)[C@@H]2CC[C@]1(O)C3`, the GI50 in assay [1] is 0.271 µM (active); in assay [2], 1.56 µM (inactive); in assay [17] it was 1.93 µM (inactive); in assay [3] it was 2.39 µM (inactive); in assay [4] it was 1.27 µM (inactive); in assay [6] it was 1.9 µM (inactive). The GI50 in assay [7] is 1.71 µM (inactive); in [8] it was 1.72 µM (inactive); in assay [9] it was 0.604 µM (active); in assay [10], 3.38 µM (inactive); in [11], 1.55 µM (inactive); in assay [13] it was 0.286 µM (active). Moreover, the results for the GI50 in assay [14], in assay [15] and in [16] were 19.2 µM (inactive), 1.63 µM (inactive) and 0.624 µM (active), respectively.
